Assays:
[1] = In vitro metabolic stability, mouse liver microsomes; format: in vitro ADME
Description: NADPH regeneration system (13 mM NADP, 33 mM Glucose-6-phospate, 33 mM MgCl2, and 4 U/mL of Glucose-6-phosphate dehydrogenase) and liver microsomes (1 mg/mL of HLM (BD Gentest, lot 18888) or MLM (BD Gentest, lot 31197)) in 0.1 M phosphate buffer (pH 7.4) were pre-incubated separately at 37° C. for 20 min before mixing with 1:4 ratio. 50 μL of the mixed solution was added to 50 μL of the test compound (2 μM) to initiate the reaction at 37° C. (final conc. 1 μM test compound, 0.4 mg/mL liver microsomes, and 1.3 mM NADPH). After 30 min, the reactions were stopped by adding 300 μL of cold acetonitrile. For 0 min samples, ice-cold acetonitrile (with system suitability standard) was treated before mixing the test compound and microsomes. The sample were vortexed well and then centrifuged at 3500 rpm at 15° C. for 20 min. 110 μL of supernatant was mixed with 110 μL of water and quantitated by LC-MS/MS workstation (Shimazu Corp.).

[2] = target: CLK1 (Homo sapiens, UniProt P49759); assay: Kinase selectivity IC50, CLK1; format: biochemical
Description: (§1) To investigate the representative kinase selectivity of these compounds at physiological ATP levels, compound 13 was screened over a panel of 121 kinases in the presence of 1 mM ATP with preincubation method. […] IC50 values of hit kinases were determined to confirm the selectivity of compound 13.

[3] = target: CLK2 (Homo sapiens, UniProt P49760); assay: Kinase selectivity IC50, CLK2; format: biochemical
Description: as §1

[4] = target: GSK3β (Homo sapiens, UniProt P49841); assay: Kinase selectivity IC50, GSK3β; format: biochemical
Description: as §1

[5] = target: PIM1 (Homo sapiens, UniProt P11309); assay: Kinase selectivity IC50, PIM1; format: biochemical
Description: as §1

[6] = tested on: phosphorylation at Ser53 of MCM2; assay: Western blotting of MCM2 phosphorylation in Colo-205 cells; format: cell-based, human; settings: 48 h, even at 0.1 μM
Description: (§2) FIGS. 3A and 3B illustrate the effects of Cdc7 inhibition by compound 13 in Colo-205 cells. a) Western blot analysis of extracts prepared from Colo-205 cells at 48 h after treatment with DMSO control (0 μM) or compound 13 at indicated concentrations. b) […] analysis of Colo-205 cells treated for 48 h with DMSO control (0 μM) and the indicated concentration of compound 13. DNA content was measured by FACS after propidium iodide staining.
Human colon adenocarcinoma cell line Colo-205 was obtained from American Type Culture Collection (ATCC, Manassas Va.). Cells were grown in RPMI1640 supplemented with 10% FBS and 1% penicillin/streptomycin at 37° C., 5% CO2 and 95% humidity. Antibodies against Phospho-Histone H2A.X (Ser139) (no. 2577), Cleaved PARP (Asp214) (no. 9541) and MCM2 (no. 3619) were obtained from Cell signaling Technology. […]
Cells were seeded in T75 flasks (cell density, 2.25×10^6 cells/13.5 mL) and then incubated at 37° C. overnight. […] After washing with cold D-PBS, cells were scraped and lysed using a lysis buffer [RIPA Buffer (×1) containing 1% Phosphatase inhibitor Cocktail 3, 1% Phosphatase inhibitor Cocktail, and 1 mM phenylmethylsulfonyl fluoride], and the obtained samples were analyzed by western blotting. […] Each band was detected by chemiluminescence using a CCD camera (ImageQuant LAS 500, GE healthcare Ltd.).

[7] = tested on: Colo-205 cells; assay: Cell cycle analysis (flow cytometry); format: cell-based, human; settings: 48 hours, 0.33 and 1 μM
Description: as §2
Colo-205 cells (5×10^5) were seeded in six-well plates and treated with different concentrations of a test compound. After 48 h, the cells were harvested and suspended in 0.5 mL of D-PBS. The cells were then fixed by adding 1 mL of ice-cold ethanol, and the samples were kept at −30° C. The cells were resuspended in 200 μL PI solution (20 μg/mL propydium iodide and 100 μg/mL RNaseA of D-PBS), and incubated in the dark for 1 h at room temperature. Cell cycle analyses were performed using FACS Calibur flow cytometer (BD Biosciences).

[8] = tested on: Colo-205 cells; assay: Anti-proliferation activity in Colo-205 cells; format: cell-based; settings: Homo sapiens, read-out: reduction of cell proliferation IC50
[9] = 1 mM ATP with preincubation, mean of duplicated assays

GSK3β, sequence (P49841 whole entry): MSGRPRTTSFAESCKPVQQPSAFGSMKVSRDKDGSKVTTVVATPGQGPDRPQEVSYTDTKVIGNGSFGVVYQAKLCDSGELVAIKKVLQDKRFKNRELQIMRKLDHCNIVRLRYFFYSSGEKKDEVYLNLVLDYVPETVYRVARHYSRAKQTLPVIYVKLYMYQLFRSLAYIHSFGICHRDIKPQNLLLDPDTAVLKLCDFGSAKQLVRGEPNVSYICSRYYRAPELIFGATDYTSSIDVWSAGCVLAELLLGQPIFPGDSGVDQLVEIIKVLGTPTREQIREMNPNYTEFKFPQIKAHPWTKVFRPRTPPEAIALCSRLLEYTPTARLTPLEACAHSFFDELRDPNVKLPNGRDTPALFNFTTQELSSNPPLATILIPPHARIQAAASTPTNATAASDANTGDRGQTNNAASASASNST
CLK1, sequence (P49759 whole entry): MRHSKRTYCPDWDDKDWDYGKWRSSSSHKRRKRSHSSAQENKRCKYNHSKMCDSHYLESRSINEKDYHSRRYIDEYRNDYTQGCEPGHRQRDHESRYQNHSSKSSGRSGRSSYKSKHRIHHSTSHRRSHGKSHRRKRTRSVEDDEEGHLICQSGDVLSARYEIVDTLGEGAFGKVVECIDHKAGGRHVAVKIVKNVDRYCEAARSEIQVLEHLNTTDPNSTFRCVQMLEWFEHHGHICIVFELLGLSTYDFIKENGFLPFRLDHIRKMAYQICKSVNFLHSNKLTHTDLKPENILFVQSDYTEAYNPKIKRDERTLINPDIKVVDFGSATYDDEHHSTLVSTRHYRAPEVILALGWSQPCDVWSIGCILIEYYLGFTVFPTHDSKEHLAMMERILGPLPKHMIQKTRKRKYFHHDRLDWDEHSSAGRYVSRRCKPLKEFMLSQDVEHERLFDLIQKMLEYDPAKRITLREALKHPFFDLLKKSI
PIM1, sequence (P11309 whole entry): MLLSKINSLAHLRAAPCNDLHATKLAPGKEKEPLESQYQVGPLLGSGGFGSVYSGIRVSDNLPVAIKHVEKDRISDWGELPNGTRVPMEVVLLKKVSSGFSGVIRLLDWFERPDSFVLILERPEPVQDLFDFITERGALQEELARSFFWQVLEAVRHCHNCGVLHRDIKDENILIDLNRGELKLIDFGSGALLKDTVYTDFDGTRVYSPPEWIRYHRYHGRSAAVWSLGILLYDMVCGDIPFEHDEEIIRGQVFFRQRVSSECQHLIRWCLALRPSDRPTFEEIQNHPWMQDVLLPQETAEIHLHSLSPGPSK
CLK2, sequence (P49760 whole entry): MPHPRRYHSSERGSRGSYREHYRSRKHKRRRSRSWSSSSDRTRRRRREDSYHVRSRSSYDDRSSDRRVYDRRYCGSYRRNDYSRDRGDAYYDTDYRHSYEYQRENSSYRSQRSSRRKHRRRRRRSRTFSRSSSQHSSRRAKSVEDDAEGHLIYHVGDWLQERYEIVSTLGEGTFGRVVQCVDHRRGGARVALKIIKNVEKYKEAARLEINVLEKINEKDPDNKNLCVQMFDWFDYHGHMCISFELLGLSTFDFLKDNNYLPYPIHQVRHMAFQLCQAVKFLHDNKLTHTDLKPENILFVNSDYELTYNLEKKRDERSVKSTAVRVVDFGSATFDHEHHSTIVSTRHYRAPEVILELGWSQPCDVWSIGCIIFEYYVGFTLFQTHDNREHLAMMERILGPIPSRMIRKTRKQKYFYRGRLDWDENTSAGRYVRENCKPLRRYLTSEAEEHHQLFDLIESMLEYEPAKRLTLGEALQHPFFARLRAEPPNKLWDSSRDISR

MLM % (remaining % of parent compound) ([1]; 30 min treatment of mouse liver microsomes): 58%
metabolic stability in mice (in words) ([1]; mouse): improved metabolic stabilities
IC50 [2, 9]: 5 nM
Fold selectivity, CLK1 ([2]; IC50 versus Cdc7): 8.3 fold
IC50 [3, 9]: 5.3 nM
Fold selectivity, CLK2 ([3]; IC50 versus Cdc7): 8.8 fold
IC50 [4, 9]: 51 nM
Fold selectivity, GSK3β ([4]; IC50 versus Cdc7): 85 fold
IC50 [5, 9]: 77 nM
Fold selectivity, PIM1 ([5]; IC50 versus Cdc7): 129 fold
IC50 [8]: 170 nM
SMILES: CCOC(=O)C1=C(Nc2ccccc2Cl)OC(=Cc2c[nH]c3ncccc23)C1=O [Compound 13, Ethyl 5-((1H-pyrrolo[2,3-b]pyridin-3-yl)methylene)-2-((2-chlorophenyl)amino)-4-oxo-4,5-dihydrofuran-3-carboxylate]
inhibition of phosphorylation at Ser53 of MCM2 [6]: potently inhibited
G1 phase peak [7]: Marked decreases
sub-G1 population [7]: significant increase

Source: US20200055848A1, “FURANONE DERIVATES AND METHODS OF USE THEREOF” (CARNA BIOSCIENCES, INC., priority 2016, published 2020)
